Tests used:
[1] = target: T1, GR, cytosol from IM-9 cells (Homo sapiens, UniProt P04150); test: GR binding assay, 3H-Dexamethasone; details: Table 8; 3H-Dexamethasone 1.5 nM
T1 construct: endogenous in cells; host or cells: IM-9 cells (cytosol)
T1 sequence (P04150 1-777): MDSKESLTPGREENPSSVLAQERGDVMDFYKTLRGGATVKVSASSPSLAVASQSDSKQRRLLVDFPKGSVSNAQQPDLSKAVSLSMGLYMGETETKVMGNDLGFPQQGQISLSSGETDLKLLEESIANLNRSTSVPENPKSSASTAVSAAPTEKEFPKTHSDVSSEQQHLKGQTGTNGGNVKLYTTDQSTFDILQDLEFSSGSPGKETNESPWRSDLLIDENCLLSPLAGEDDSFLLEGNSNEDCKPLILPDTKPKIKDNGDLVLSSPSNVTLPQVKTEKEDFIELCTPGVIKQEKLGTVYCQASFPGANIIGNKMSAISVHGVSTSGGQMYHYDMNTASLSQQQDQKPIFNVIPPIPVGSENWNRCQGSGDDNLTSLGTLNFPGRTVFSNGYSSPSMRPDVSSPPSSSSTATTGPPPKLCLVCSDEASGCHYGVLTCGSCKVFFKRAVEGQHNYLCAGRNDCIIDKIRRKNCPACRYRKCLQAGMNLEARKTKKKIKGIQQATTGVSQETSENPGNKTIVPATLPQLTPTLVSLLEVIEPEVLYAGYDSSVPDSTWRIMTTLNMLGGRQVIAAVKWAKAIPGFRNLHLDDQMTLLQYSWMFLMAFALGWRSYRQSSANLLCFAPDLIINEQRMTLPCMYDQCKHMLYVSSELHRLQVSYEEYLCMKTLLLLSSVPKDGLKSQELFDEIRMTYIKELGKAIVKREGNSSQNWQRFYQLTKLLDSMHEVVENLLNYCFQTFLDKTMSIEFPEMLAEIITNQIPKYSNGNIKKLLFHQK
Method: GR binding assay: To assess GR binding, test compound (top dose 1 μM, 4 fold serial dilution, 8 point dose response) and control (dexamethasone) were transferred to the assay plate. Cytosol from IM-9 cells was added to the plate, followed by addition of radiolabeled ^3H-Dexamethasone at a final concentration of 1.5 nM. The plate was sealed, and the reaction was incubated at 300 rpm at 4° C. for 24 hrs. Radioligand absorption buffer (10 mM Tris-HCl, pH 7.4; 1.5 mM EDTA; 1 mM DTT; 0.25% charcoal; 0.0025% dextran) was then added to the plate, mixed, and incubated at 4° C. for 15 minutes. The plate was then centrifuged at […] for 30 minutes at 4° C. The supernatant was transferred to the scint-tube and Tri-carb was used for scintillation counting. The data was analyzed using GraphPadPrism v5.0 and binding IC50 was determined as the concentration where 50% inhibition of radioligand binding was observed.

[2] = target: T2, Progesterone Receptor (PR)-LBD (Homo sapiens, UniProt P06401); test: PR coactivator antagonist assay; assay type: biochemical; details: Table 8; 10 nM progesterone; read-out: PR antagonism
T2 sequence (P06401 679-913 limits assumed): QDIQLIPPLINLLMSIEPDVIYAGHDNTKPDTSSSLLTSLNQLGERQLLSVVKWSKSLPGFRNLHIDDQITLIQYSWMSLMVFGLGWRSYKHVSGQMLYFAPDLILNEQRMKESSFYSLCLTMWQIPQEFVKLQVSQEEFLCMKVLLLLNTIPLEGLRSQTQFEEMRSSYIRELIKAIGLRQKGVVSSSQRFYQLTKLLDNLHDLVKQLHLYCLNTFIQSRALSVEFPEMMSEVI
Method: PR coactivator antagonist assay: Test compound (Top dose 10 μM, 4 fold serial dilution, 8 point dose response) and/or vehicle was incubated with the 2.5 nM Progesterone Receptor (PR)-LBD and coactivator peptide for 30 minutes at RT. Determination of the amount of complex formed is read spectrofluorimetrically (excitation: 337 nm, emission: 520/490 nm). Test compound-induced inhibition of 10 nM progesterone-induced fluorescence response by 50 percent or more (>50%) indicates receptor antagonist activity.

[3] = target: T3, ligand binding domain of the glucocorticoid receptor (Homo sapiens, UniProt P04150); test: GR antagonism assay (HEK293, dexamethasone 1.5 nM, Dual-glo); assay type: cell-based; details: Table 8
T3 construct: expressed in transfected cells
T3 sequence (P04150 524-758 limits assumed): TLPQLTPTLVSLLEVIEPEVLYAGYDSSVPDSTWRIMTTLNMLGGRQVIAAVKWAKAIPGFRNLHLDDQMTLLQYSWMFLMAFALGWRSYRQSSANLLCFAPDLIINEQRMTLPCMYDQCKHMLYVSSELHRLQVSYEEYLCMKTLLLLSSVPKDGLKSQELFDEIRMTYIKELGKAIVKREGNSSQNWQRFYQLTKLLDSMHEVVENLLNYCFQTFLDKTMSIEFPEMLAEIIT
Method: GR antagonism assay: To evaluate GR antagonist activity, test compound was added to the assay plate (top dose 5 μM, 4 fold serial dilution, 8 point dose response). HEK293 cells stably expressing the ligand binding domain of the glucocorticoid receptor were seeded at a density of 40000 cells/well in the assay plate. The assay plate was then incubated at 37° C., 5% CO2 for 30 minutes. Dexamethasone was added to the assay plate at 1.5 nM final concentration and the assay plate was incubated at 37° C., 5% CO2 for 20 h. After the incubation period, Dual-glo luciferase reagent was added to the assay plate and mixed at room temperature for 20 minutes on an orbital shaker, before reading out on the EnVision plate reader.

T47D cells = test: Cell viability assay (CellTiterGlo, 6 days) T47D; assay type: cell-based; details: Homo sapiens, 144 h, Table 8
Method: Cell viability assay: LNCap, 22Rv1, and T47D cells were seeded at a density of 1500-2000 cells/well in 96 well plates, and a ‘T0’ (timepoint 0) was included along with the assay plate. The plates were then incubated at 37° C., 5% CO2 in a cell culture incubator overnight. On the next day, the ‘T0’ plate was assayed using CellTiterGlo (Promega, Inc) according to the manufacturer's instructions. The appropriate compounds were diluted in DMSO and added to the assay plate (final DMSO concentration of 0.2%) on the next day. The assay plates were incubated for 6 days at 37° C., 5% CO2. After the incubation period, the plates were assayed using CellTiterGlo (Promega, Inc) according to the manufacturer's instructions and luminescence was read on the EnVision plate reader. Inhibition the tested compounds was determined by the following formula: Inhibition rate (%)=(1−(RLU compound−RLU day0)/(RLU control−RLU day0))*100%. GraphPadPrism was used to analyze the data and determine absolute IC50 values.

IC50 [1]: < 10 nM
IC50 [2]: < 10 nM
IC50 [3]: 10 to 100 nM
IC50 (T47D cells): > 10000 nM
SMILES: CC#C[C@]1(O)CC[C@H]2[C@@H]3CCC4=CC(=O)CCC4=C3[C@@H](c3ccc(N(C)CCCCCC(=O)NCCOCCOCC(=O)N4CCN(C(=O)c5cc(Cc6n[nH]c(=O)c7ccccc67)ccc5F)CC4)cc3)C[C@@]21C [Compound 1429, N-(2-(2-(2-(4-(2-fluoro-5-((4-oxo-3,4-dihydrophthalazin-1-yl)methyl)benzoyl)piperazin-1-yl)-2-oxoethoxy)ethoxy)ethyl)-6-((4-((8S,11R,13S,14S,17S)-17-hydroxy-13-methyl-3-oxo-17-(prop-1-ynyl)-2,3,6,7,8,11,12,13,14,15,16,17-dodecahydro-1H-cyclopenta[a]phenanthren-11-yl)phenyl)(methyl)amino)hexanamide]

— patent US11952349B2, “Anti-cancer nuclear hormone receptor-targeting compounds” (Nuvation Bio Inc., priority 2019, dated 2024)
